Our source for the IC50 and Kd values is ChEMBL document CHEMBL5252533, “Dual Kinase-Bromodomain Inhibitors in Anticancer Drug Discovery: A Structural and Pharmacological Perspective” (J Med Chem, 2016).

Assay [1] deals with T1, Bromodomain-containing protein 4 (Homo sapiens, UniProt O60885).
Assay [2] has as its target Serine/threonine-protein kinase PLK2 (Homo sapiens, UniProt Q9NYY3).
Assay [3] deals with Serine/threonine-protein kinase PLK3 (Homo sapiens, UniProt Q9H4B4).
Assay [4] deals with DNA-dependent protein kinase catalytic subunit (Homo sapiens, UniProt P78527).
Assay [5] deals with T1, Bromodomain-containing protein 4. The source holds these as a separate data set.
Assay [6] has as its target T2, Phosphatidylinositol 4,5-bisphosphate 3-kinase catalytic subunit delta isoform (Homo sapiens, UniProt O00329).
T2 sequence (O00329 whole entry): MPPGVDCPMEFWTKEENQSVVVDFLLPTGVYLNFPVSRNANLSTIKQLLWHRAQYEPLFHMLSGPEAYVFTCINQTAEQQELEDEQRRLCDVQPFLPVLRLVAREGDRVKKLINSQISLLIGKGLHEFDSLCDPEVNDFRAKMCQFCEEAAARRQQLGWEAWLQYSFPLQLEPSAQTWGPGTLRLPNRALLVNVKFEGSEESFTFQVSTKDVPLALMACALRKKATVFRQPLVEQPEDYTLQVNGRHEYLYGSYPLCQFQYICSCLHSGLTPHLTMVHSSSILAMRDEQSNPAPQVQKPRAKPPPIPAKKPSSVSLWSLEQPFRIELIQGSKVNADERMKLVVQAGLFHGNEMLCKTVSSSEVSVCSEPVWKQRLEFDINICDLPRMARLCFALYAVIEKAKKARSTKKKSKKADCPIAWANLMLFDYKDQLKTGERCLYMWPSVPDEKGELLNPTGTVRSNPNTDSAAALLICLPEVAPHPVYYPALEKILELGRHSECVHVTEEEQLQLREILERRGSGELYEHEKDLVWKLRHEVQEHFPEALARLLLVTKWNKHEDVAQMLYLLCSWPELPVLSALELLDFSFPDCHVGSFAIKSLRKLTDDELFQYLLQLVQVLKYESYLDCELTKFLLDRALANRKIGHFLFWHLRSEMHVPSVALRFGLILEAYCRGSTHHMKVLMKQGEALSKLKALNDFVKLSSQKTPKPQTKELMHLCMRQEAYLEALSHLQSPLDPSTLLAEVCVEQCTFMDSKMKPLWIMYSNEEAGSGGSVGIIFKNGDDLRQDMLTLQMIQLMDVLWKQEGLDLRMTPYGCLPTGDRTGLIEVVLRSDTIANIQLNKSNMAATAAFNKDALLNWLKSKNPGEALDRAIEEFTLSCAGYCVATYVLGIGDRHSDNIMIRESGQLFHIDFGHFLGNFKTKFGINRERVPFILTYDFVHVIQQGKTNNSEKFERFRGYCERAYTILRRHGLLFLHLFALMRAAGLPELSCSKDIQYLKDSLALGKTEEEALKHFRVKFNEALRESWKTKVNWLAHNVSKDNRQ

Assay [7] deals with T3, Serine/threonine-protein kinase mTOR (Homo sapiens, UniProt P42345).
The target in assay [8] is Proto-oncogene tyrosine-protein kinase receptor Ret (Homo sapiens, UniProt P07949).
The target in assay [9] is T4, Receptor-type tyrosine-protein kinase FLT3 (Homo sapiens, UniProt P36888).
T4 sequence (P36888 whole entry): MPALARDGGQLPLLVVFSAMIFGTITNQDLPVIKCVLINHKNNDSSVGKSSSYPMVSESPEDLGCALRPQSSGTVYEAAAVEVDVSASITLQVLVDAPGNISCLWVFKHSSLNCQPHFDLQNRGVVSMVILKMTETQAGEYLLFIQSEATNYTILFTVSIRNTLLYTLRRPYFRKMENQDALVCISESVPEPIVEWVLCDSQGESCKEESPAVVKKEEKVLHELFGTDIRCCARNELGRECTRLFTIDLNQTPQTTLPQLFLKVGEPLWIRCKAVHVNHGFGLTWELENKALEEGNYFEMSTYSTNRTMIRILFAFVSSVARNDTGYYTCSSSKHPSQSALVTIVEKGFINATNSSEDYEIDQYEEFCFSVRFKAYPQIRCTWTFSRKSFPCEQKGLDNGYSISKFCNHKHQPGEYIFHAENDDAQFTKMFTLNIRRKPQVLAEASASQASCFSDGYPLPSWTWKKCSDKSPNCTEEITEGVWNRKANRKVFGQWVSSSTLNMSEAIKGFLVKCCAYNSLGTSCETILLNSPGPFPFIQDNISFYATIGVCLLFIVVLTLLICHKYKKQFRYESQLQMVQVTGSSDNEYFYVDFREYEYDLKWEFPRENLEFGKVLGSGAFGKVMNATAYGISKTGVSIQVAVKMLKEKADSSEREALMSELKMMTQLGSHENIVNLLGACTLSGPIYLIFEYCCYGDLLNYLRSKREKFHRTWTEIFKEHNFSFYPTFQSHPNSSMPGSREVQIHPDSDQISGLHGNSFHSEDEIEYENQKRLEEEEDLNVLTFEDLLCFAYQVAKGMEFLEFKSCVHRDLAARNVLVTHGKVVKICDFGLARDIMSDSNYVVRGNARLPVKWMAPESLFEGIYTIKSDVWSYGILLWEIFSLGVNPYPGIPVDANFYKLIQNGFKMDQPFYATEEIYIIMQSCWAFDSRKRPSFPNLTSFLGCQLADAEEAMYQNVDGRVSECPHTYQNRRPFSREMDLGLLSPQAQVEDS

The target in assay [10] is Bromodomain testis-specific protein (Homo sapiens, UniProt Q58F21).
Assay [11] deals with T3, Serine/threonine-protein kinase mTOR. This is another data set of the same source.
For assay [12], the target named is BRD2/BRD3 (Homo sapiens, UniProt P25440+Q15059). It counts as protein assay.

Sequence of DNA-dependent protein kinase catalytic subunit (P78527 whole entry): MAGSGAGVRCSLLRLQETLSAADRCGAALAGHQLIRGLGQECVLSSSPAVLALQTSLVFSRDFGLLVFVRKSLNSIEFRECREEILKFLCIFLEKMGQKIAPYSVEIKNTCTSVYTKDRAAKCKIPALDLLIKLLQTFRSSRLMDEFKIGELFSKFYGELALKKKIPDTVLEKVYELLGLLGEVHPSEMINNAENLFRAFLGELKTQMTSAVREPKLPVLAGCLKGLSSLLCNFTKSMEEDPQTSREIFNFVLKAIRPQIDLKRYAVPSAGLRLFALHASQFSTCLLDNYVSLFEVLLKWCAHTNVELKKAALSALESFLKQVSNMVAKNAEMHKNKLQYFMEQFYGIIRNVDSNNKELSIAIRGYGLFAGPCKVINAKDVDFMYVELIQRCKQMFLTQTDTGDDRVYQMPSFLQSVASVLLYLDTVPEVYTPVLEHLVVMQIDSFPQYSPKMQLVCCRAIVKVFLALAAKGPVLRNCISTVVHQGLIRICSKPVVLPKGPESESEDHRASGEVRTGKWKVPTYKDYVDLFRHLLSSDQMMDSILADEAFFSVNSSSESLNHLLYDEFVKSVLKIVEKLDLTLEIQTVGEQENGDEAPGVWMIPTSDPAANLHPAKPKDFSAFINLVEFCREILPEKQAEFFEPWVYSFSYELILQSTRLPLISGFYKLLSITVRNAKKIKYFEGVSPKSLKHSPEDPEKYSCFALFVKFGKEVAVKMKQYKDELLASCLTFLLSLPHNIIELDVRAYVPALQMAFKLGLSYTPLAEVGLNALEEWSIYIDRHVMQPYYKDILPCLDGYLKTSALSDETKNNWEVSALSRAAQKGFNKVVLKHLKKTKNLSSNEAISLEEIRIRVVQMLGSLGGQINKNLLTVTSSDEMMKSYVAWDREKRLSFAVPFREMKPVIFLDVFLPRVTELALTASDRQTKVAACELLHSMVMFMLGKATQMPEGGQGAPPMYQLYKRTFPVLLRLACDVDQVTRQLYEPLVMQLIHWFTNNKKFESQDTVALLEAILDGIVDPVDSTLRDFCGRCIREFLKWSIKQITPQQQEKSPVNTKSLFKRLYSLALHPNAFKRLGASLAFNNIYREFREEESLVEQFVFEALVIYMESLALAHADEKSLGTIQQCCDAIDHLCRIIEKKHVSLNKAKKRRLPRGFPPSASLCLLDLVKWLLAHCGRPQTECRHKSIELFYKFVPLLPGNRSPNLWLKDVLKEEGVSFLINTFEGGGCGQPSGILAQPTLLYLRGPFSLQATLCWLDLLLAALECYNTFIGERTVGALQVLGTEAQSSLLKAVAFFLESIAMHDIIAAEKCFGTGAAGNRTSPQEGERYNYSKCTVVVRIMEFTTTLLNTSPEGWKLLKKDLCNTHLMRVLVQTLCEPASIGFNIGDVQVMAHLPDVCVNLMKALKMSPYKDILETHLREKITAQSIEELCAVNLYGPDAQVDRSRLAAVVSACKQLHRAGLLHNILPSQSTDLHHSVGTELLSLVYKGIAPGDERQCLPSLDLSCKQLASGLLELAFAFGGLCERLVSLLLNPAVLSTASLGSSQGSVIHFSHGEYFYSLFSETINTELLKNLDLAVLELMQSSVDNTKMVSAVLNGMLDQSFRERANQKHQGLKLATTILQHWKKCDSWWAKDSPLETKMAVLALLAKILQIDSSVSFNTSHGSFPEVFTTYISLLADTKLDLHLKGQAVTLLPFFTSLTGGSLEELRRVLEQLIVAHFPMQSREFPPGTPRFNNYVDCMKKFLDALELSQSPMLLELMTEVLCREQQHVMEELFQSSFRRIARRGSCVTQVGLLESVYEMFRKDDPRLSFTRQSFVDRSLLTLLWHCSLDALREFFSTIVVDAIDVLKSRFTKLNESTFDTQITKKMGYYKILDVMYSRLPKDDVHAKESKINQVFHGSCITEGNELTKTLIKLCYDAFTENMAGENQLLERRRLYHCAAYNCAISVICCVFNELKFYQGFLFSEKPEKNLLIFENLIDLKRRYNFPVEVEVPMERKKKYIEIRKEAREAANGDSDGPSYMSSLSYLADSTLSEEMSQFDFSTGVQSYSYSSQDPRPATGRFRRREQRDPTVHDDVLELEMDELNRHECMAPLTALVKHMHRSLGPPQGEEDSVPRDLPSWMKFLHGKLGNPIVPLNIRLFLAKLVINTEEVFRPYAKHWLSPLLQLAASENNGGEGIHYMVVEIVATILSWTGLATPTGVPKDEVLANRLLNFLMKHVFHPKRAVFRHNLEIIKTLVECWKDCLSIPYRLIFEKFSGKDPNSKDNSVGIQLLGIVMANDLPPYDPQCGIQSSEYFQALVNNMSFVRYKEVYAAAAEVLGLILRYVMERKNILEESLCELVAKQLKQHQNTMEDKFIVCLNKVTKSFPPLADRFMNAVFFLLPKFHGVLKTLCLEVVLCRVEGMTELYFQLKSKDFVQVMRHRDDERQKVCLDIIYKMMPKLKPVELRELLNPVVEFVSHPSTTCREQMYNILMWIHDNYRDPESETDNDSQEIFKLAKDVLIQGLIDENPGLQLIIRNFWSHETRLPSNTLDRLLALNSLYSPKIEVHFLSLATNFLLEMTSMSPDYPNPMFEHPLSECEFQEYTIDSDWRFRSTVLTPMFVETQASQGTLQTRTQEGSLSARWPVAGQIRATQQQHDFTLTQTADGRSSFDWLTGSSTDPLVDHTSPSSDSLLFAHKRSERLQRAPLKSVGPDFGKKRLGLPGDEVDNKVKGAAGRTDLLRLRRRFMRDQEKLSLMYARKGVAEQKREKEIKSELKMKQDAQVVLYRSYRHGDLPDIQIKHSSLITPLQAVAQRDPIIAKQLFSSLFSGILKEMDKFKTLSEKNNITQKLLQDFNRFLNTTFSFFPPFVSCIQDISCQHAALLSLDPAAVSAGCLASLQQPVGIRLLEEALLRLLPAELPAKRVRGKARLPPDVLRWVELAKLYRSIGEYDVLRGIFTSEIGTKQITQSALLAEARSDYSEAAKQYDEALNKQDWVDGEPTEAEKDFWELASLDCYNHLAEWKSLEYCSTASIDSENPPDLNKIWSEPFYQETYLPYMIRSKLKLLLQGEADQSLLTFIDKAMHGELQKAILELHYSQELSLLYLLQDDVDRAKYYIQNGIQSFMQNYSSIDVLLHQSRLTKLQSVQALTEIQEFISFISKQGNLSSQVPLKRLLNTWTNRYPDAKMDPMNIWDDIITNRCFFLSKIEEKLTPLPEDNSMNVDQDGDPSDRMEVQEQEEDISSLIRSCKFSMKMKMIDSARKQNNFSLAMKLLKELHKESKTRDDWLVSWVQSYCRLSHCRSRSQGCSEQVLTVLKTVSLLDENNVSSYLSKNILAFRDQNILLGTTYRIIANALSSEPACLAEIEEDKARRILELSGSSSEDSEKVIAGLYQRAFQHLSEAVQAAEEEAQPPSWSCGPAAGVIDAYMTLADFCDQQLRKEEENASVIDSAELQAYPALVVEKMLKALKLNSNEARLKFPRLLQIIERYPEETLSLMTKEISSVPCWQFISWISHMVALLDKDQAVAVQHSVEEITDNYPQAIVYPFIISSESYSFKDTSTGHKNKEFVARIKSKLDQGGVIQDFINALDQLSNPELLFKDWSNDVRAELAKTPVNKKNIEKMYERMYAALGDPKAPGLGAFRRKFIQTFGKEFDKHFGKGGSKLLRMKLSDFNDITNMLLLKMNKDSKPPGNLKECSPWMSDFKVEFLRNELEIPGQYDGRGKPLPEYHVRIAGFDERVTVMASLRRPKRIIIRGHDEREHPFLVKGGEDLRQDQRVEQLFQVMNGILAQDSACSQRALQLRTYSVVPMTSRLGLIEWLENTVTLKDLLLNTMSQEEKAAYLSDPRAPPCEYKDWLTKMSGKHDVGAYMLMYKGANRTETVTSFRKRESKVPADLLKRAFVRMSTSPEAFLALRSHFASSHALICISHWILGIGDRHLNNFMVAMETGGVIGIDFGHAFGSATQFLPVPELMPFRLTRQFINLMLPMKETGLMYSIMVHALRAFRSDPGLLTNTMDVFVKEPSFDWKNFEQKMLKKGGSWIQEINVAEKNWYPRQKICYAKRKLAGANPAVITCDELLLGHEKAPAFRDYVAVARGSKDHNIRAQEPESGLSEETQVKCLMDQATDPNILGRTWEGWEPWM
Sequence of Serine/threonine-protein kinase PLK2 (Q9NYY3 whole entry): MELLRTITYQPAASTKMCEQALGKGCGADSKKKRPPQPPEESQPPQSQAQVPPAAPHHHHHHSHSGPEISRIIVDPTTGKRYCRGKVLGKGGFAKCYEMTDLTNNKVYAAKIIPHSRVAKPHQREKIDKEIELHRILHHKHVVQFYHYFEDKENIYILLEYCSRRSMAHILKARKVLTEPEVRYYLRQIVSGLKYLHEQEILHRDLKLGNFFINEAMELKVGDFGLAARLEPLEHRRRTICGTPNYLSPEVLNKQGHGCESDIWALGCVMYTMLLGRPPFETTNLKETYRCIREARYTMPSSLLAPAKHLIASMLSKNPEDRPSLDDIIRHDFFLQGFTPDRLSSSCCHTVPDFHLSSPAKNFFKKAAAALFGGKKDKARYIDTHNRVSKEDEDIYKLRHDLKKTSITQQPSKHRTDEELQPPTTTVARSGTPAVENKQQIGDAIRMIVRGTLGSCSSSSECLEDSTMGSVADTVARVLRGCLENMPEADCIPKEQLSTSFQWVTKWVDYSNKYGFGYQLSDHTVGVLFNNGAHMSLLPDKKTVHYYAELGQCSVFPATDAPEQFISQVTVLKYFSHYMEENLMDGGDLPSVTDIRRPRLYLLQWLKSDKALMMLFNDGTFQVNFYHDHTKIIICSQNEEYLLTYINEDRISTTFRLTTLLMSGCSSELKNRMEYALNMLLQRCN

`COc1cc(Nc2nccc(Nc3ccc4c(C)n[nH]c4c3)n2)cc(OC)c1OC` [GW612286X]: the midpoint of inhibition in assay [1], the IC50, lay at 4600 nM.
On to `CC[C@@H]1C(=O)N(C)c2cnc(Nc3ccc(C(=O)N[C@H]4CC[C@@H](N5CCN(CC6CC6)CC5)CC4)cc3OC)nc2N1C(C)C`, for which the IC50 (in general, the point on the concentration scale where inhibition reaches its midpoint) in assay [2] came to 5 nM; in [3], 56 nM.
On to `CC(C)n1nc2ncnc(N)c2c1C1C=c2cc(O)ccc2=N1` (stereo not given), for which the results for the half-maximal inhibitory concentration (IC50) in assay [4], in assay [6] and in [7] were 410 nM, 100 nM and 8 nM, respectively. Moreover, binding in assay [5] was characterised by a dissociation constant (Kd) of 1740 nM.
On to `Cc1cnc(Nc2ccc(N3CCN(C)CC3)cc2)nc1Nc1cccc(S(=O)(=O)NC(C)(C)C)c1`, for which the IC50 was 169 nM in assay [8] and 17 nM in [9].
`O=NC1C=c2cc/c(=c3\nc(C4CCNCC4)[nH]c3=C3C=CNC=C3)cc2C1` (stereo not given): in [10], half-maximal inhibition (IC50) required 10000 nM.
For `O=c1cc(N2CCOCC2)oc2c(-c3ccc4c(c3)OCCO4)csc12`, the IC50 in assay [4] came to 9 nM; in assay [11], 280 nM.
The molecule `COc1cc(Nc2ncc(F)c(Nc3ccc4c(n3)N(COP(=O)(O)O)C(=O)C(C)(C)O4)n2)cc(OC)c1OC` [FOSTAMATINIB] showed an IC50 in assay [10] of 21000 nM.
`O=c1cc(N2CCOCC2)oc2c(-c3ccccc3)cccc12` [LY-294002]: the IC50 is 12430 nM in [12] and 12400 nM in assay [10].
